Data reported in patent publication US20200216441A1, “PESTICIDALLY ACTIVE HETEROCYCLIC DERIVATIVES WITH SULFUR CONTAINING SUBSTITUENTS” (SYNGENTA PARTICIPATIONS AG, priority 2017, published 2020).

Key:
[1] = test system: Euschistus heros (Neotropical Brown Stink Bug); assay: whole plant or invertebrate; format: in vivo; details: 120 h, application rate of 200 ppm, N2 nymphs on sprayed soybean leaves, 5 days after infestation, read-out: effect in at least one of the two categories (mortality or growth inhibition)
[2] = test system: Myzus persicae (Green Peach Aphid); assay: whole plant or invertebrate; format: in vivo; details: 144 h, test rate of 24 ppm, systemic, roots of infested pea seedlings in test solution, 6 days
[3] = test system: Myzus persicae (Green Peach Aphid); assay: whole plant or invertebrate; details: foliar, 144 h
[4] = test system: Spodoptera littoralis (Egyptian Cotton Leaf Worm); assay: whole plant or invertebrate; details: in Gossypium barbadense, foliar, 72 h, read-out: control (mortality, anti-feeding effect, growth inhibition)
[5] = test system: Bemisia tabaci (Cotton White Fly); details: in Gossypium hirsutum, foliar, 144 h
[6] = test system: Plutella xylostella (Diamond Back Moth); assay: whole plant or invertebrate; format: in vivo; details: 120 h, application rate of 200 ppm, L2 larvae on treated artificial diet, 5 days after infestation, read-out: effect in at least one of the two categories (mortality or growth inhibition)
[7] = test system: Diabrotica Balteata (Corn Root Worm); assay: Diabrotica balteata (Corn Root Worm); details: in Zea mays, 96 h, read-out: effect in at least one of the two categories (mortality or growth inhibition)

CCS(=O)(=O)c1cc(OCCSC)cnc1-c1nc2cc(C(F)(F)F)ncc2n1C [Compound P11, 2-[3-ethylsulfonyl-5-(2-methylsulfanylethoxy)-2-pyridyl]-3-methyl-6-(trifluoromethyl)imidazo[4,5-c]pyridine]
≥ 80%: percent effect (mortality or growth inhibition) at 200 ppm [1] | mortality at 24 ppm [2] | mortality at 200 ppm [3] | mortality at 200 ppm [4] | mortality at 200 ppm [5]

CCS(=O)(=O)c1cc(OCC(C)(C)C)cnc1-c1nc2cc(C(F)(F)F)ncc2n1C [Compound P26, 2-[5-(2,2-dimethylpropoxy)-3-ethylsulfonyl-2-pyridyl]-3-methyl-6-(trifluoromethyl)imidazo[4,5-c]pyridine]
≥ 80%: percent effect (mortality or growth inhibition) at 200 ppm [6] | mortality at 200 ppm [3] | mortality at 200 ppm [4] | mortality at 200 ppm [7] | mortality at 200 ppm [5]

CCS(=O)(=O)c1cc(OC(C)(C)CSC)cnc1-c1nc2cc(C(F)(F)F)ncc2n1C [Compound P50, 2-[5-(1,1-dimethyl-2-methylsulfanyl-ethoxy)-3-ethylsulfonyl-2-pyridyl]-3-methyl-6-(trifluoromethyl)imidazo[4,5-c]pyridine]
≥ 80%: percent effect (mortality or growth inhibition) at 200 ppm [1] | mortality at 24 ppm [2] | percent effect (mortality or growth inhibition) at 200 ppm [6] | mortality at 200 ppm [3] | mortality at 200 ppm [7] | mortality at 200 ppm [5]

CCS(=O)(=O)c1cc(OC[Si](C)(C)C)cnc1-c1nc2cc(C(F)(F)F)ncc2n1C [Compound P61, [5-ethylsulfonyl-6-[3-methyl-6-(trifluoromethyl)imidazo[4,5-c]pyridin-2-yl]-3-pyridyl]oxymethyl-trimethyl-silane]
≥ 80%: mortality at 200 ppm [3] | mortality at 200 ppm [4] | mortality at 200 ppm [7] | mortality at 200 ppm [5]

CCS(=O)(=O)c1cc(OCC2CC2(F)F)cnc1-c1nc2cc(C(F)(F)F)ncc2n1C (centres unmarked) [Compound P67, 2-[5-[(2,2-difluorocyclopropyl)methoxy]-3-ethylsulfonyl-2-pyridyl]-3-methyl-6-(trifluoromethyl)imidazo[4,5-c]pyridine]
≥ 80%: percent effect (mortality or growth inhibition) at 200 ppm [1] | percent effect (mortality or growth inhibition) at 200 ppm [6] | mortality at 200 ppm [3] | mortality at 200 ppm [4] | mortality at 200 ppm [7] | mortality at 200 ppm [5]

CCS(=O)(=O)c1cc(OCCCC#N)cnc1-c1nc2cc(C(F)(F)F)ncc2n1C [Compound P70, 4-[[5-ethylsulfonyl-6-[3-methyl-6-(trifluoromethyl)imidazo[4,5-c]pyridin-2-yl]-3-pyridyl]oxy]butanenitrile]
≥ 80%: percent effect (mortality or growth inhibition) at 200 ppm [1] | mortality at 24 ppm [2] | percent effect (mortality or growth inhibition) at 200 ppm [6] | mortality at 200 ppm [3] | mortality at 200 ppm [4] | mortality at 200 ppm [5]

CCS(=O)(=O)c1cc(OC(C)(C)C(N)=O)cnc1-c1nc2cc(C(F)(F)F)ncc2n1C [Compound P89, 2-[[5-ethylsulfonyl-6-[3-methyl-6-(trifluoromethyl)imidazo[4,5-c]pyridin-2-yl]-3-pyridyl]oxy]-2-methyl-propanamide]
≥ 80%: percent effect (mortality or growth inhibition) at 200 ppm [1] | mortality at 24 ppm [2] | percent effect (mortality or growth inhibition) at 200 ppm [6] | mortality at 200 ppm [3] | mortality at 200 ppm [7] | mortality at 200 ppm [5]
